Test results taken from the NIST ThermoML archive (doi:10.1016/j.jct.2018.12.021).

Assay: mn = molality of the nth substance listed, in mol/kg
Details: 100 kPa, Liquid; for electrical conductivity: Direct current cell with electrodes; for mass density: Vibrating tube method

CCCCCCCCCCCC[n+]1ccsc1.[Br-] [N-dodecylthiazolium bromide] + O
Details | electrical conductivity, 303.15 K [S/m] | electrical conductivity, 308.15 K [S/m] | electrical conductivity, 313.15 K [S/m] | mass density, 303.15 K [kg/m3] | mass density, 308.15 K [kg/m3] | mass density, 313.15 K [kg/m3]
m1 = 0.00122 | – | – | – | 995.67 | 994.05 | 992.22
m1 = 0.00157 | – | 0.018 | 0.0197 | 995.69 | 994.07 | 992.24
m1 = 0.00191 | – | – | – | 995.71 | 994.09 | 992.26
m1 = 0.00201 | – | 0.0229 | 0.025 | 995.72 | 994.1 | 992.27
m1 = 0.00258 | – | – | – | 995.75 | 994.14 | 992.3
m1 = 0.00299 | – | 0.0334 | 0.0366 | 995.78 | 994.17 | 992.33
m1 = 0.00326 | – | – | – | 995.8 | 994.18 | 992.35
m1 = 0.00407 | – | 0.0443 | 0.0485 | 995.85 | 994.24 | 992.4
m1 = 0.00429 | – | – | – | 995.87 | 994.25 | 992.42
m1 = 0.00507 | – | 0.0563 | 0.0614 | 995.92 | 994.3 | 992.46
m1 = 0.00548 | – | – | – | 995.95 | 994.33 | 992.49
m1 = 0.00602 | – | 0.0646 | 0.0703 | 995.98 | 994.36 | 992.52
m1 = 0.00698 | – | 0.0757 | 0.0838 | 996.04 | 994.42 | 992.58
m1 = 0.00753 | – | 0.0803 | 0.0904 | 996.08 | 994.46 | 992.62
m1 = 0.00905 | – | 0.0978 | 0.11 | 996.18 | 994.55 | 992.72
m1 = 0.01006 | – | 0.107 | 0.122 | 996.25 | 994.63 | 992.79
m1 = 0.01266 | – | 0.131 | 0.146 | 996.42 | 994.78 | 992.94
m1 = 0.01513 | 0.125 | 0.141 | 0.159 | 996.57 | 994.93 | 993.07
m1 = 0.01771 | 0.132 | 0.148 | 0.171 | 996.72 | 995.08 | 993.22
m1 = 0.01974 | 0.138 | 0.156 | 0.177 | 996.84 | 995.2 | 993.33
m1 = 0.02301 | 0.148 | 0.165 | 0.187 | 997.04 | 995.4 | 993.52
m1 = 0.02601 | 0.156 | 0.174 | 0.196 | 997.2 | 995.56 | 993.68
